Reference: US9295732B2, “Conjugated TLR7 and/or TLR8 and TLR2 polycationic agonists” (CAYLA, priority 2013, dated 2016)
Several values for one entry are separate records, joined by “and”; a condition that tells them apart may be missing. Equal values may be shown once.

What was measured:
[1] = Nanoparticle (lipoplex) size by dynamic light scattering; conditions: 25° C., triplicate; for Mean Diameter: complexes with pDNA 3:24 (w:w), dynamic light scattering; for PDI: polydispersity index of complexes with pDNA 3:24 (w:w);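 on all read-outs here: lipoplexes of TLR7-TLR2 polyamine conjugates with plasmid DNA, formed over 30 min at room temperature in serum-free medium or 5% glucose, diameter in nm, PDI dimensionless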
murine TLR7 = target: T1, murine TLR7 (Mus musculus, UniProt P58681); test: HEK-Blue mTLR7 NF-κB/AP-1 SEAP reporter assay; assay type: cell-based; conditions: HEK-Blue mTLR7 cells, 10 μg/mL to 10 pg/ml, 24 hours, OD at 655 nm, FIG. 2
T1 construct: host or cells: HEK293 (HEK-Blue™ mTLR7)
T1 sequence (P58681 27-1050): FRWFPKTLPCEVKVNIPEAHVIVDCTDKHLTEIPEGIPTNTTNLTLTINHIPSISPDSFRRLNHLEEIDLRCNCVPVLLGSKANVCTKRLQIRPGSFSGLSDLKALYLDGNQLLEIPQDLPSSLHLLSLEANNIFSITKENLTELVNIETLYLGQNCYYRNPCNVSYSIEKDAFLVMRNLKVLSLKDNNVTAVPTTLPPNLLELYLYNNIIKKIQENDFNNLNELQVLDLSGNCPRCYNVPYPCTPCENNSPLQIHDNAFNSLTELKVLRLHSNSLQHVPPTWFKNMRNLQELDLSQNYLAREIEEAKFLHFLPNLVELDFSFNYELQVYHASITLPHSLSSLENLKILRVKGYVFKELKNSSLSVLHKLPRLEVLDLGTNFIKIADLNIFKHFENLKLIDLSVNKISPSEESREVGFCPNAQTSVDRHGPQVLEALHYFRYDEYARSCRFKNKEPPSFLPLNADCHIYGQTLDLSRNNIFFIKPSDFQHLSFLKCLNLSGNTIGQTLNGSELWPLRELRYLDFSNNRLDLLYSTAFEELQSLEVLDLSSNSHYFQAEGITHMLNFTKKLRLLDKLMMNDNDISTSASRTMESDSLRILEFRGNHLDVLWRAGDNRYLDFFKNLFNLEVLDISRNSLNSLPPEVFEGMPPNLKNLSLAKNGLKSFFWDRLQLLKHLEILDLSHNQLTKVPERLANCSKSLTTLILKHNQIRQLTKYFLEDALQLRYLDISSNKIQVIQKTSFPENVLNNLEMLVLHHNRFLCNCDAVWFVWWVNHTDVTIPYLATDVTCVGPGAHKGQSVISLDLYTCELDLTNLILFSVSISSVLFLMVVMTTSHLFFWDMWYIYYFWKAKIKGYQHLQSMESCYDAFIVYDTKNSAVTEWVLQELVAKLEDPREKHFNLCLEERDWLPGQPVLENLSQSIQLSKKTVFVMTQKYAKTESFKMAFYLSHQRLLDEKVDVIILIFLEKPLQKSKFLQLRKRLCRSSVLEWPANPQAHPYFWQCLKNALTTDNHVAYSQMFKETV
Procedure: (§1) Cell-based assays were carried out using TLR7 and TLR2 reporter cell lines (InvivoGen). The reporter cell lines are engineered HEK293 cells, a human embryonic kidney cell line (ATCC, CRL-1573) that stably express either murine TLR7 (HEK-Blue™ mTLR7) or human TLR7 (HEK-Blue™ hTLR7) or human TLR2 (HEK-Blue™ hTLR2) with an NF-κB-inducible secreted embryonic alkaline phosphatase (SEAP) as the reporter gene. The SEAP reporter gene is under the control of the NF-κB and AP-1-inducible promoter, which, upon treatment with a corresponding TLR ligand and activation of NF-κB and AP-1, induces the production of SEAP. Detection of SEAP is measured following culturing cells in HEK-Blue™ Detection media (InvivoGen). HEK-Blue™ Detection contains a SEAP substrate that when hydrolysed by SEAP produces a colorimetric change allowing for detection of SEAP as the protein is secreted. […] These assays were carried out using RAW-Blue™ Cells (InvivoGen), derived from RAW 264.7 mouse leukemic monocyte macrophage cell line (ATCC, CRL 2278) stably overexpressing a NF-B/AP-1 inducible SEAP reporter constructs.
(§2) To perform the assay, cells were seeded on 96 well microliter plates at 50,000 or 100,000 cells per well for HEK-Blue™ Cells and RAW-Blue™ Cells respectively, and cultured at 37° C. in the presence of the conjugated compounds The TLR7-TLR2 polyamine molecules were prepared as follows: First, stock solutions of the conjugated compounds of the invention were prepared in ethanol or water to a concentration of 10 mg/ml.
(§3) The working dilutions of the conjugated TLR7-TLR2 polyamine agonists made up in water or PBS were directly added to the reporter cell lines at a final concentration ranging from 10 μg/mL to 10 pg/ml and incubated at 37° C. for 24 hours. After 24 hours of incubation, the effect on reporter gene activity was determined by reading the OD at 655 nm using iMark™ Microplate Reader (BIO-RAD).

human TLR7 = target: T2, human TLR7 (Homo sapiens, UniProt Q9NYK1); test: HEK-Blue hTLR7 NF-κB/AP-1 SEAP reporter assay; assay type: cell-based; conditions: HEK-Blue hTLR7 cells, 10 μg/mL to 10 pg/ml, 24 hours, OD at 655 nm, FIG. 1
T2 construct: host or cells: HEK293 (HEK-Blue™ hTLR7)
T2 sequence (Q9NYK1 27-1049): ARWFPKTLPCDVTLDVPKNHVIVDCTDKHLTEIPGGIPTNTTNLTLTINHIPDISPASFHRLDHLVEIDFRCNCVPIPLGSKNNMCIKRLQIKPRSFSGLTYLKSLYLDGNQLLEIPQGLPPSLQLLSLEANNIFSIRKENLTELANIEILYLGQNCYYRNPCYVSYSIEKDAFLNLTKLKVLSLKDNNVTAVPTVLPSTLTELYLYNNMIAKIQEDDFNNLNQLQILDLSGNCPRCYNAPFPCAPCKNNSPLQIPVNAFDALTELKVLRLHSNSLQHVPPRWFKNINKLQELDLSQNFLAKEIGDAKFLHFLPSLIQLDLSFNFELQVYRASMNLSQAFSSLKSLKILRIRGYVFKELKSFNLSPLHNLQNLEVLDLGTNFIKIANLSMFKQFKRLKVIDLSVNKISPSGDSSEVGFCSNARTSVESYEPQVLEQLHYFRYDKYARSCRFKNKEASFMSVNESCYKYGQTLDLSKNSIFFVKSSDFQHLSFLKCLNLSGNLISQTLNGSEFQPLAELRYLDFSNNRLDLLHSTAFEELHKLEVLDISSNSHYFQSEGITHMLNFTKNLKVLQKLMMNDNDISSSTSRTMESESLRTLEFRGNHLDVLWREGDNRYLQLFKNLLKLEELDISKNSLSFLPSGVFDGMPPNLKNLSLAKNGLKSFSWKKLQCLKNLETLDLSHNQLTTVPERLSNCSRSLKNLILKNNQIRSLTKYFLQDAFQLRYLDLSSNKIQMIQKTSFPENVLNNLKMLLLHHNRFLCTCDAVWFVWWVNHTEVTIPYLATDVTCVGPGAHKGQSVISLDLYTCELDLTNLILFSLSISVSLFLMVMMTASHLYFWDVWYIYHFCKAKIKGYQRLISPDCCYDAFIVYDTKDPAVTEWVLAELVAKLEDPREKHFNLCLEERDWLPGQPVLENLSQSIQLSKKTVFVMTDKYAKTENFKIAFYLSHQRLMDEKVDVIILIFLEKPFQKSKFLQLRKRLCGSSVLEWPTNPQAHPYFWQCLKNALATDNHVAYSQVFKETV
Procedure: as §1, §2, §3

[2] = system: endogenous TLR2 and TLR7 in RAW-Blue™ Cells; test: RAW-Blue Cells NF-κB/AP-1 SEAP reporter assay; assay type: cell-based, mouse; conditions: 24 hours, OD at 655 nm, FIG. 4
Procedure: as §1, §2, §3

plasmid DNA (pDNA) = test: Gel shift (mobility shift) assay of pDNA complexation; assay type: binding; conditions: pDNA:molecule ratio 3:24 (w:w), 0.8% agarose gel, compared to pDNA alone
Procedure: Then, 10 μl of pDNA:TLR7-TLR2 polyamine molecule complexes and 2 μl of charge buffer were mixed and loaded into wells of a 0.8% agarose gel. Samples were migrated through the gel in TAE buffer under 135 voltage for 21 mins and the migration of the pDNA was visualized following ethidium bromide staining under UV light. The ability of TLR7-TLR2 polyamine molecules to complex/associate with the pDNA was identified by partial or complete retardation of the pDNA migration toward the anode in the gel compared to pDNA alone. […] Ethidium bromide intercalation of pDNA in complex with molecules allowed visualization of complexed pDNA as a smear in the wells of the gel.

human TLR2 = target: T3, human TLR2 (Homo sapiens, UniProt O60603); test: HEK-Blue hTLR2 NF-κB/AP-1 SEAP reporter assay; assay type: cell-based; conditions: HEK-Blue hTLR2 cells, 10 μg/mL to 10 pg/ml, 24 hours, OD at 655 nm, FIG. 3
T3 construct: host or cells: HEK293 (HEK-Blue™ hTLR2)
T3 sequence (O60603 21-784): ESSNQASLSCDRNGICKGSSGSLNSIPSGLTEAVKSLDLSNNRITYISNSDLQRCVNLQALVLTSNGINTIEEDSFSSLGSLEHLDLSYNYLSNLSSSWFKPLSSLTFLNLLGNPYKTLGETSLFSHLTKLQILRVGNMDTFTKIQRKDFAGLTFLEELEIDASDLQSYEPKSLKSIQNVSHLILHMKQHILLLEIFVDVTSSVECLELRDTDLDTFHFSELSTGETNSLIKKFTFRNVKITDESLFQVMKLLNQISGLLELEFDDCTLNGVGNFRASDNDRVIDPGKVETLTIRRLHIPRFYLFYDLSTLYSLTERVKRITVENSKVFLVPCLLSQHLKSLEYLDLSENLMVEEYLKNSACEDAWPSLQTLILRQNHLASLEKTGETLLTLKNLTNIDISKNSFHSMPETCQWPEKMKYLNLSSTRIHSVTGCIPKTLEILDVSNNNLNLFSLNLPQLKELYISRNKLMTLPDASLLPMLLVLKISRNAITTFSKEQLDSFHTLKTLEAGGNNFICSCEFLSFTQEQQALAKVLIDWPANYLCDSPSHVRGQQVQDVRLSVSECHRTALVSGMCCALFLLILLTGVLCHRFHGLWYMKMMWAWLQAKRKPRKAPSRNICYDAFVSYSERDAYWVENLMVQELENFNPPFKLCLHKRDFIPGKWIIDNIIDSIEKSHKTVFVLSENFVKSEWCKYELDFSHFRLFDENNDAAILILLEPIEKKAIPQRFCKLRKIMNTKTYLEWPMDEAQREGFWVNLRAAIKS
Procedure: as §1, §2, §3

Row | SMILES | Mean Diameter [1] | PDI [1] | ability to activate mTLR7 (murine TLR7) | ability to activate hTLR7 (human TLR7) | ability to activate endogenous TLR2 and TLR7 in RAW-Blue Cells [2] | ability to complex pDNA (retardation of pDNA migration in agarose gel) (plasmid DNA (pDNA)) | ability to activate hTLR2 (human TLR2)
1 | CCCCCCCCCCCCCCCC(=O)OCC(CSC[C@H](N)C(=O)NCCCNCCCCNCCCN)OC(=O)CCCCCCCCCCCCCCC (some centres unmarked) [CL419] | 147.0 nm and 148.5 nm and 156.7 nm | 0.185 and 0.193 and 0.210 | – | – | – | – | –
2 | CCCCCCCCCCCCCCCC(=O)OCC(CSC[C@H](N)C(=O)N[C@@H](CCCCNC(=O)CNC(=O)c1ccc(Cn2c(O)nc3c(N)nc(NCCCC)nc32)cc1)C(=O)NCCCNCCCCNCCCN)OC(=O)CCCCCCCCCCCCCCC (stereo partly drawn) [CL475, (6R,9S)-6,23-diamino-9-(4-(2-(4-((6-amino-2-(butylamino)-8-hydroxy-9H-purin-9-yl)methyl)benzamido)acetamido)butyl)-7,10-dioxo-4-thia-8,11,15,20-tetraazatrico sane-1,2-diyl dipalmitate] | 145.9 nm and 155.8 nm and 153.5 nm | 0.193 and 0.176 and 0.158 | activate mTLR7 | activate hTLR7 | activate endogenous TLR2 and TLR7 | inability to migrate through an agarose gel | activate hTLR2
3 | CCCCCCCCCCCCCCCC(=O)OCC(CSC[C@H](N)C(=O)NCCCC[C@H](NC(=O)c1ccc(Cn2c(O)nc3c(N)nc(NCCCC)nc32)cc1)C(=O)NCCCNCCCCNCCCN)OC(=O)CCCCCCCCCCCCCCC (stereo partly drawn) [CL486, (6R,13S)-6,27-diamino-13-(4-((6-amino-2-(butylamino)-8-hydroxy-9H-purin-9-yl)methyl)benzamido)-7,14-dioxo-4-thia-8,15,19,24-tetraazaheptacosane-1,2-diyl dipalmitate] | 202.0 nm and 209.2 nm and 179.7 nm | 0.234 and 0.236 and 0.232 | activate mTLR7 | activate hTLR7 | activate endogenous TLR2 and TLR7 | inability to migrate through an agarose gel | activate hTLR2
4 | CCCCCCCCCCCCCCCC(=O)N[C@@H](CSCC(COC(=O)CCCCCCCCCCCCCCC)OC(=O)CCCCCCCCCCCCCCC)C(=O)N[C@@H](CO)C(=O)N[C@@H](CCCCN)C(=O)N[C@@H](CCCCNC(=O)c1ccc(Cn2c(O)nc3c(N)nc(NCCCC)nc32)cc1)C(=O)N[C@@H](CCCCN)C(=O)N[C@@H](CCCCN)C(=O)O (stereo partly drawn) [CL536, (2S,5S,8S,11S,14S,17R)-8-(4-(4-((6-amino-2-(butylamino)-8-hydroxy-9H-purin-9-yl)methyl)benzamido)butyl)-2,5,11-tris(4-aminobutyl)-14-(hydroxymethyl)-4,7,10,13,16,24-hexaoxo-17-palmitamido-21-(palmitoyloxy)-23-oxa-19-thia-3,6,9,12,15-pentaazanonatriacontan-1-oic acid] | – | – | activate mTLR7 | activate hTLR7 | activate endogenous TLR2 and TLR7 | inability to migrate through an agarose gel | activate hTLR2
5 | CCCCCCCCCCCCCCCC(=O)N[C@@H](CSCC(COC(=O)CCCCCCCCCCCCCCC)OC(=O)CCCCCCCCCCCCCCC)C(=O)N[C@@H](CO)C(=O)N[C@@H](CCCCNC(=O)c1ccc(Cn2c(O)nc3c(N)nc(NCCCC)nc32)cc1)C(=O)N[C@@H](CCCCN)C(=O)N[C@@H](CCCCN)C(=O)N[C@@H](CCCCN)C(=O)O (stereo partly drawn) [CL537, (2S,5S,8S,11S,14S,17R)-11-(4-(4-((6-amino-2-(butylamino)-8-hydroxy-9H-purin-9-yl)methyl)benzamido)butyl)-2,5,8-tris(4-aminobutyl)-14-(hydroxymethyl)-4,7,10,13,16,24-hexaoxo-17-palmitamido-21-(palmitoyloxy)-23-oxa-19-thia-3,6,9,12,15-pentaazanonatria contan-1-oic acid] | – | – | activate mTLR7 | activate hTLR7 | activate endogenous TLR2 and TLR7 | inability to migrate through an agarose gel | activate hTLR2
